# Laboratory results as given in patent publication US20060128724A1, “Pyrazole-substituted aminoheteroaryl compounds as protein kinase inhibitors” (AGOURON PHARMACEUTICALS, INC., priority 2004, published 2006).
# Where two headings read alike, the source gives them in different places.
# Target: T1, c-MET (HGFR) (Homo sapiens, UniProt P08581)
# T1 construct: purchased Upstate 14-526
# Experiment: HGFR Continuous-Coupled Spectrophotometric Assay
# Assay type: biochemical
# Conditions: Met-2 substrate peptide, 50 nM HGFR, 37° C.
# How it was run: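 Tyrosine kinase activity of 50 nM HGFR on the activation-loop Met-2 peptide, followed as NADH consumption at 340 nm over 10 min at 37 °C in a pyruvate kinase/LDH coupled system, HEPES pH 7.5 buffer with MgCl2 and DTT.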
# T1 sequence (P08581 974-1390 limits assumed): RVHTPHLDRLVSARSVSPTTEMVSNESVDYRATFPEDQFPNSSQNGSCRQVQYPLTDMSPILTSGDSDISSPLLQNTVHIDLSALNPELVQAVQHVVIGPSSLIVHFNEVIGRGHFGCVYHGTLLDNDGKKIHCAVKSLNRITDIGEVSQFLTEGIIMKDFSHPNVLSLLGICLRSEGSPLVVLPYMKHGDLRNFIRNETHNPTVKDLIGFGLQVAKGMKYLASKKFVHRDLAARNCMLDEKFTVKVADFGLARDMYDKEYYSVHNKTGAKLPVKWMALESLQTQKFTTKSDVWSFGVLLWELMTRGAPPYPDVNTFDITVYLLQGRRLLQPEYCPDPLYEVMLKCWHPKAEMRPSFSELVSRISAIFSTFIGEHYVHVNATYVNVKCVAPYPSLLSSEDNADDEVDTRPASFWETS
Compound,Ki (read-out: c-Met Ki) [nM],Ki (read-out: Met Ki) [nM]
"CCOC(=O)c1cnn(-c2cnc(N)c(OC(C)c3c(Cl)ccc(F)c3Cl)c2)c1 (stereo not drawn) [Example 80, 1-{6-Amino-5-[1-(2,6-dichloro-3-fluoro-phenyl)-ethoxy]-pyridin-3-yl}-1H-pyrazole-4-carboxylic acid ethyl ester]",2050,–
"CC(Oc1cc(-c2cnn(CC3CCNCC3)c2)cnc1N)c1c(Cl)ccc(F)c1Cl (stereo not drawn) [Example 81, 3-[1-(2,6-Dichloro-3-fluoro-phenyl)-ethoxy]-5-(1-piperidin-4-ylmethyl-1H-pyrazol-4-yl)-pyridin-2-ylamine]",56,–
"CC(Oc1cc(-c2cnn(CCN3CCNCC3)c2)cnc1N)c1c(Cl)ccc(F)c1Cl (stereo not drawn) [Example 82, 3-[1-(2,6-Dichloro-3-fluoro-phenyl)-ethoxy]-5-[1-(2-piperazin-1-yl-ethyl)-1H-pyrazol-4-yl]-pyridin-2-ylamine]",47,–
"CC(Oc1cc(-c2cnn(CCO)c2)cnc1N)c1c(Cl)ccc(F)c1Cl (stereo not drawn) [Example 83, 2-(4-{6-Amino-5-[1-(2,6-dichloro-3-fluoro-phenyl)-ethoxy]-pyridin-3-yl}-pyrazol-1-yl)-ethanol]",46,–
"CC(Oc1cc(-c2cnn(CC3COCO3)c2)cnc1N)c1c(Cl)ccc(F)c1Cl (stereo not drawn) [Example 84, 3-[1-(2,6-Dichloro-3-fluoro-phenyl)-ethoxy]-5-(1-[1,3]dioxolan-4-ylmethyl-1H-pyrazol-4-yl)-pyridin-2-ylamine]",61,–
"CC(Oc1cc(-c2cnn(CC3CCN(C(=O)CO)CC3)c2)cnc1N)c1c(Cl)ccc(F)c1Cl (stereo not drawn) [Example 85, 1-[4-(4-{6-Amino-5-[1-(2,6-dichloro-3-fluoro-phenyl)-ethoxy]-pyridin-3-yl}-pyrazol-1-ylmethyl)-piperidin-1-yl]-2-hydroxy-ethanone]",30,–
"COC(=O)C1CC(n2cc(-c3cnc(N)c(OC(C)c4c(Cl)ccc(F)c4Cl)c3)cn2)CN1 (stereo not drawn) [Example 88, 4-(4-{6-Amino-5-[1-(2,6-dichloro-3-fluoro-phenyl)-ethoxy]-pyridin-3-yl}-pyrazol-1-yl)-pyrrolidine-2-carboxylic acid methyl ester]",34,–
"CC(Oc1cc(-c2cnn(CC3CCN(C)CC3)c2)cnc1N)c1c(Cl)ccc(F)c1Cl (stereo not drawn) [Example 89, 3-[1-(2,6-Dichloro-3-fluoro-phenyl)-ethoxy]-5-[1-(1-methyl-piperidin-4-ylmethyl)-1H-pyrazol-4-yl]-pyridin-2-ylamine]",24,–
"CNC(=O)C1CC(n2cc(-c3cnc(N)c(OC(C)c4c(Cl)ccc(F)c4Cl)c3)cn2)CN1 (stereo not drawn) [Example 90, 4-(4-{6-Amino-5-[1-(2,6-dichloro-3-fluoro-phenyl)-ethoxy]-pyridin-3-yl}-pyrazol-1-yl)-pyrrolidine-2-carboxylic acid methylamide]",34,–
"CC(Oc1cc(-c2cnn(C3CNC(C(N)=O)C3)c2)cnc1N)c1c(Cl)ccc(F)c1Cl (stereo not drawn) [Example 91, 4-(4-{6-Amino-5-[1-(2,6-dichloro-3-fluoro-phenyl)-ethoxy]-pyridin-3-yl}pyrazol-1-yl)-pyrrolidine-2-carboxylic acid amide]",44,–
"Cc1noc(C)c1Cn1cc(-c2cnc(N)c(OC(C)c3c(Cl)ccc(F)c3Cl)c2)cn1 (stereo not drawn) [Example 93, 3-[1-(2,6-dichloro-3-fluorophenyl)ethoxy]-5-{1-[(3,5-dimethylisoxazol-4-yl)methyl]-1H-pyrazol-4-yl}pyridin-2-amine]",69,–
"CC(Oc1cc(-c2cnn(C3CCN(C(=O)OC(C)(C)C)CC3)c2)cnc1N)c1c(Cl)ccc(F)c1Cl (stereo not drawn) [Example 94, tert-butyl 4-(4-{6-amino-5-[1-(2,6-dichloro-3-fluorophenyl)ethoxy]pyridin-3-yl}-1H-pyrazol-1-yl)piperidine-1-carboxylate]",35,–
"CC(Oc1cc(-c2cnn(C3CCN(C(=O)OCCO)CC3)c2)cnc1N)c1c(Cl)ccc(F)c1Cl (stereo not drawn) [Example 95, 2-hydroxyethyl 4-(4-{6-amino-5-[1-(2,6-dichloro-3-fluorophenyl)ethoxy]pyridin-3-yl}-1H-pyrazol-1-yl)piperidine-1-carboxylate]",10,–
"CC(Oc1cc(-c2cnn(C3CN(C(C)C)C3)c2)cnc1N)c1c(Cl)ccc(F)c1Cl (stereo not drawn) [Example 97, 3-[1-(2,6-dichloro-3-fluorophenyl)ethoxy]-5-[1-(1-isopropylazetidin-3-yl)-1H-pyrazol-4-yl]pyridin-2-amine]",30,–
"CC(Oc1cc(-c2cnn(C3CCN(CC(N)=O)CC3)c2)cnc1N)c1c(Cl)ccc(F)c1Cl (stereo not drawn) [Example 98, 2-[4-(4-{6-amino-5-[1-(2,6-dichloro-3-fluorophenyl)ethoxy]pyridin-3-yl}-1H-pyrazol-1-yl)piperidin-1-yl]acetamide]",7,–
"CC(Oc1cc(-c2cnn(C3CC4CCC(C3)N4)c2)cnc1N)c1c(Cl)ccc(F)c1Cl (stereo not drawn) [Example 99, 5-[1-(8-azabicyclo[3.2.1]oct-3-yl)-1H-pyrazol-4-yl]-3-[1-(2,6-dichloro-3-fluorophenyl)ethoxy]pyridin-2-amine]",5,–
"CC(Oc1cc(-c2cnn(Cc3nn[nH]n3)c2)cnc1N)c1c(Cl)ccc(F)c1Cl (stereo not drawn) [Example 100, 3-[1-(2,6-dichloro-3-fluorophenyl)ethoxy]-5-[1-(2H-tetrazol-5-ylmethyl)-1H-pyrazol-4-yl]pyridin-2-amine]",40,–

Compound,Ki (read-out: c-Met Ki) [nM],Ki (read-out: Met Ki) [nM]
"CCOC(=O)N1CCC(n2cc(-c3cnc(N)c(OC(C)c4c(Cl)ccc(F)c4Cl)c3)cn2)CC1 (stereo not drawn) [Example 101, ethyl 4-(4-{6-amino-5-[1-(2,6-dichloro-3-fluorophenyl)ethoxy]pyridin-3-yl}-1H-pyrazol-1-yl)piperidine-1-carboxylate]",19,–
"CC(Oc1cc(-c2cnn(C3CN(CCO)C3)c2)cnc1N)c1c(Cl)ccc(F)c1Cl (stereo not drawn) [Example 102, 2-[3-(4-{6-amino-5-[1-(2,6-dichloro-3-fluorophenyl)ethoxy]pyridin-3-yl}11H-pyrazol-1-yl)azetidin-1-yl]ethanol]",50,–
"COCCN1CC(n2cc(-c3cnc(N)c(OC(C)c4c(Cl)ccc(F)c4Cl)c3)cn2)C1 (stereo not drawn) [Example 103, 3-[1-(2,6-dichloro-3-fluorophenyl)ethoxy]-5-{1-[1-(2-methoxyethyl)azetidin-3-yl]-1H-pyrazol-4-yl}-pyridin-2-amine]",70,–
"CC(Oc1cc(-c2cnn(C3CN(S(C)(=O)=O)C3)c2)cnc1N)c1c(Cl)ccc(F)c1Cl (stereo not drawn) [Example 104, 3-[1-(2,6-dichloro-3-fluorophenyl)ethoxy]-5-{1-[1-(methylsulfonyl)azetidin-3-yl]-1H-pyrazol-4-yl}pyridin-2-amine]",36,–
"CC(Oc1cc(-c2cnn(C3CN(C(=O)CO)C3)c2)cnc1N)c1c(Cl)ccc(F)c1Cl (stereo not drawn) [Example 105, 2-[3-(4-{6-amino-5-[1-(2,6-dichloro-3-fluorophenyl)ethoxy]pyridin-3-yl}1H-pyrazol-1-yl)azetidin-1-yl]-2-oxoethanol]",22,–
"CC(=O)N1CC(Cn2cc(-c3cnc(N)c(OC(C)c4c(Cl)ccc(F)c4Cl)c3)cn2)C1 (stereo not drawn) [Example 106, 5-{1-[(1-acetylazetidin-3-yl)methyl]-1H-pyrazol-4-yl}-3-[1-(2,6-dichloro-3-fluorophenyl)ethoxy]pyridin-2-amine]",29,–
"CC(Oc1cc(-c2cnn(CC3CN(S(C)(=O)=O)C3)c2)cnc1N)c1c(Cl)ccc(F)c1Cl (stereo not drawn) [Example 107, 3-[1-(2,6-dichloro-3-fluorophenyl)ethoxy]-5-(1-{[1-(methylsulfonyl)azetidin-3-yl]methyl}-1H-pyrazol-4-yl)pyridin-2-amine]",44,–
"CC(Oc1cc(-c2cnn(CC3CN(C(C)C)C3)c2)cnc1N)c1c(Cl)ccc(F)c1Cl (stereo not drawn) [Example 108, 3-[1-(2,6-dichloro-3-fluorophenyl)ethoxy]-5-{1-[(1-isopropylazetidin-3-yl)methyl]-1H-pyrazol-4-yl}pyridin-2-amine]",57,–
"CC(Oc1cc(-c2cnn(C3CN(CC(N)=O)C3)c2)cnc1N)c1c(Cl)ccc(F)c1Cl (stereo not drawn) [Example 109, 2-[3-(4-{6-amino-5-[1-(2,6-dichloro-3-fluorophenyl)ethoxy]pyridin-3-yl}1H-pyrazol-1-yl)azetidin-1-yl]acetamide]",21,–
"CC(=O)N1CC(n2cc(-c3cnc(N)c(OC(C)c4c(Cl)ccc(F)c4Cl)c3)cn2)C1 (stereo not drawn) [Example 110, 5-[1-(1-acetylazetidin-3-yl)-1H-pyrazol-4-yl]-3-[1-(2,6-dichloro-3-fluorophenyl)ethoxy]pyridin-2-amine]",32,–
"CC(Oc1cc(-c2cnn(CC3CN(CC#N)C3)c2)cnc1N)c1c(Cl)ccc(F)c1Cl (stereo not drawn) [Example 111, {3-[(4-{6-amino-5-[1-(2,6-dichloro-3-fluorophenyl)ethoxy]pyridin-3-yl}-1H-pyrazol-1-yl)methyl]azetidin-1-yl}acetonitrile]",37,–
"CC(Oc1cc(-c2cnn(CC3CN(CC4CC4)C3)c2)cnc1N)c1c(Cl)ccc(F)c1Cl (stereo not drawn) [Example 112, 5-(1-{[1-(cyclopropylmethyl)azetidin-3-yl]methyl}1H-pyrazol-4-yl)-3-[1-(2,6-dichloro-3-fluorophenyl)ethoxy]pyridin-2-amine]",47,–
"CC(Oc1cc(-c2cnn(C3CC4CCC(C3)N4C)c2)cnc1N)c1c(Cl)ccc(F)c1Cl (stereo not drawn) [Example 115, 3-[1-(2,6-dichloro-3-fluorophenyl)ethoxy]-5-[1-(8-methyl-8-azabicyclo[3.2.1]oct-3-yl)-1H-pyrazol-4-yl]pyridin-2-amine]",9,–
"CC(Oc1cc(-c2cnn(C3CCS(=O)(=O)CC3)c2)cnc1N)c1c(Cl)ccc(F)c1Cl (stereo not drawn) [Example 116, 3-[1-(2,6-dichloro-3-fluorophenyl)ethoxy]-5-[1-(1,1-dioxidotetrahydro-2H-thiopyran-4-yl)-1H-pyrazol-4-yl]pyridin-2-amine]",17,–
"CC(Oc1cc(-c2cnn(C3CCCS(=O)(=O)C3)c2)cnc1N)c1c(Cl)ccc(F)c1Cl (stereo not drawn) [Example 117, 3-[1-(2,6-dichloro-3-fluorophenyl)ethoxy]-5-[1-(1,1-dioxidotetrahydro-2H-thiopyran-3-yl)-1H-pyrazol-4-yl]pyridin-2-amine]",14,–
CCS(=O)(=O)N1CCC(n2cc(-c3cnc(N)c(OC(C)c4c(Cl)ccc(F)c4Cl)c3)cn2)CC1 (stereo not drawn) [Example 121],–,16
